Drawing on US12727600B2, “Staurosporine⋅emamectin benzoate suspending agent and preparation method and application thereof” (PLANT PROTECTION RESEARCH INSTITUTE OF GUANGDONG ACADEMY OF …, priority 2020, dated 2026), this text covers LC50 for two compounds.

Like-named read-outs stand apart in the source and are kept apart here.

For the data set, the system named is second instar larvae of Spodoptera exigua. The data set can be described thus: Indoor toxicity by Potter spray method; co-toxicity coefficient method of Sun Y. P. The class given is in vivo. The note with it: median lethal concentration. Here is the method: The method for determining the indoor toxicity of the pesticides involved in the present invention to the second instar larvae of Spodoptera exigua is as follows:
The test method is the Potter spray method: a Potter spray tower is used to spray the vegetable leaves on both sides with 1 mL of the amount of the pesticides treating the leaf on each side, and the sedimentation is performed for 30 seconds. There are 3 replicates for each treatment for 30 larvae (2nd instar larvae of Spodoptera exigua), and a treatment with the clean water is used as the control. The petri dish after sprayed is placed in a constant-temperature incubator (temperature being 25° C., relative humidity being 85%). The death of the testing pests is investigated and recorded after treatment for 24, 48, and 72 hours. During the treatment, the petri dish is kept moist, and fresh Cantonese cabbage leaves are added timely as pest's food.
The formula (1) is used to calculate the mortality of pests, the Abbott formula is used to calculate the corrected mortality, and EXCEL is used to analyze the virulence regression results. Formula (2) is the calculation formula of Abbott. Mortality (%)=Number of dead insects/Number of testing worms before experiment*100 (1) […]

`CN[C@@H]1C[C@H]2O[C@@](C)([C@@H]1OC)n1c3ccccc3c3c4c(c5c6ccccc6n2c5c31)C(=O)NC4` [10:0, Staurosporine]: the LC50 (Spodoptera exigua, mass ratio Staurosporine:Emamectin benzoate, read-out: LC50) is 40.3 mg/L.

Turning to Emamectin benzoate [0:10], the LC50 amounted to 0.14 mg/L.

What is called LC50 is the concentration that kills 50% of the test population.
